Key:
galium = test: Test C pre-/postemergence herbicide test; format: in vivo, Galium aparine; conditions: Preemergence
Summary of the method: (§1)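 Compound solutions contained surfactant in a non-phytotoxic solvent. These were sprayed onto pots of loam/sand sown with seeds, and onto young plants (2 to 18 cm, 1- to 4-leaf) in sphagnum peat–vermiculite mix. Visual injury scores (0 none, 100 complete control) were recorded after 13 to 15 days.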

pigweed = test: Test A pre-/postemergence herbicide test; format: in vivo, Amaranthus retroflexus; conditions: for Plant response rating, Pigweed: 0 to 100 scale
Summary of the method: (§2)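 Formulated compound (non-phytotoxic solvent, surfactant) sprayed pre- onto soil of seeded loam/sand pots or post- onto seedlings at 1–2 leaves; ~10 d greenhouse; 0–100 visual control rating versus untreated.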

johnsongrass = test: Test C pre-/postemergence herbicide test; format: in vivo, Sorghum halepense
Summary of the method: as §1

ryegrass, Italian = test: Test C pre-/postemergence herbicide test; format: in vivo, Lolium multiflorum
Summary of the method: as §1

barnyardgrass = test: Test A pre-/postemergence herbicide test; format: in vivo, Echinochloa crus-galli
Summary of the method: as §2

corn [1] = test: Test A pre-/postemergence herbicide test; format: in vivo, Zea mays; conditions: Postemergence
Summary of the method: as §2

wheat (winter wheat) = test: Test C pre-/postemergence herbicide test; format: in vivo, Triticum aestivum
Summary of the method: as §1

corn [2] = test: Test C pre-/postemergence herbicide test; format: in vivo, Zea mays
Summary of the method: as §1

crabgrass, large = test: Test C pre-/postemergence herbicide test; format: in vivo, Digitaria sanguinalis
Summary of the method: as §1

morningglory = test: Test C pre-/postemergence herbicide test; format: in vivo, Ipomoea coccinea
Summary of the method: as §1

soybean = test: Test C pre-/postemergence herbicide test; format: in vivo, Glycine max
Summary of the method: as §1

foxtail, giant = test: Test C pre-/postemergence herbicide test; format: in vivo, Setaria faberii
Summary of the method: as §1

wheat = test: Test A pre-/postemergence herbicide test; format: in vivo, Triticum aestivum; conditions: Postemergence
Summary of the method: as §2

[3] = Postemergence, 31 g ai/ha, scale 0 to 100 (0 no effect, 100 complete control)
[4] = Postemergence, 62 g ai/ha, scale 0 (no effect) to 100 (complete control)
[5] = Postemergence, 125 g ai/ha, scale 0 to 100 (0 no effect, 100 complete control)
[6] = Postemergence, 250 g ai/ha, scale 0 to 100 (0 no effect, 100 complete control)
[7] = Preemergence, 31 g ai/ha, scale 0 to 100, 0 is no effect and 100 is complete control
[8] = Preemergence, 62 g ai/ha, scale 0 to 100
[9] = Preemergence, 125 g ai/ha, scale 0 to 100 (0 no effect, 100 complete control)
[10] = 125 g ai/ha, 0 to 100 scale, 0 no effect, 100 complete control

## O=C1NCC(c2ccc(F)cc2)C1C(=O)Nc1cccc(F)c1F (racemic) [Compound 119]
galium; 31 g ai/ha, scale 0 to 100, 0 is no effect and 100 is complete control
  Galium plant response rating: 80
galium; 62 g ai/ha, scale 0 to 100
  Plant response rating, Galium: 80
galium; 125 g ai/ha, scale 0 to 100 (0 no effect, 100 complete control)
  Plant response rating, Galium: 85
galium; 250 g ai/ha
  Plant response rating (scale of 0 to 100), Galium: 90
pigweed; 125 g ai/ha, visual rating, 0 no effect, 100 complete control, approximately 10 days, preemergence
  Plant response rating, Pigweed: 30
pigweed; Postemergence, 125 g ai/ha, 0 no effect, 100 complete control
  Plant response rating, Pigweed: 30
pigweed; Postemergence, 500 g ai/ha
  Pigweed plant response rating (0 to 100 scale, 0 is no effect, 100 is complete control): 30
pigweed; preemergence, 500 g ai/ha
  Plant response rating, Pigweed: 40
johnsongrass; [3]
  Plant response rating, Johnsongrass: 0
johnsongrass; [4]
  Plant response rating, Johnsongrass: 0
johnsongrass; [5]
  Plant response rating, Johnsongrass: 0
johnsongrass; [6]
  Plant response rating, Johnsongrass: 5
johnsongrass; [7]
  Johnsongrass plant response rating: 0
johnsongrass; [8]
  Plant response rating, Johnsongrass: 0
johnsongrass; [9]
  Plant response rating, Johnsongrass: 30
johnsongrass; Preemergence, 250 g ai/ha
  Plant response rating (scale of 0 to 100), Johnsongrass: 70
ryegrass, Italian; [3]
  Plant response rating, Ryegrass, Italian: 0
ryegrass, Italian; [4]
  Plant response rating, Ryegrass, Italian: 0
ryegrass, Italian; [5]
  Plant response rating, Ryegrass, Italian: 0
ryegrass, Italian; [6]
  Plant response rating, Ryegrass, Italian: 5
ryegrass, Italian; [7]
  Ryegrass, Italian plant response rating: 0
ryegrass, Italian; [8]
  Plant response rating, Ryegrass, Italian: 15
ryegrass, Italian; [9]
  Plant response rating, Ryegrass, Italian: 30
ryegrass, Italian; Preemergence, 250 g ai/ha
  Plant response rating (scale of 0 to 100), Ryegrass, Italian: 40
barnyardgrass; 125 g ai/ha, visual rating, 0 to 100 scale, 0 no effect, 100 complete control, approximately 10 days, preemergence
  Plant response rating, Barnyardgrass: 90
barnyardgrass; Postemergence, 125 g ai/ha, 0 to 100 scale, 0 no effect, 100 complete control
  Plant response rating, Barnyardgrass: 90
barnyardgrass; Postemergence, 500 g ai/ha, 0 to 100 scale (0 no effect, 100 complete control)
  Plant response rating, Barnyardgrass: 90
barnyardgrass; preemergence, 500 g ai/ha, 0 to 100 scale (0 no effect, 100 complete control)
  Plant response rating, Barnyardgrass: 90
Corn [1]; [10]
  Plant response rating, Corn: 30
Corn [1]; 500 g ai/ha, 0 to 100 scale (0 no effect, 100 complete control)
  Plant response rating, Corn: 70
Wheat (winter wheat); [3]
  Plant response rating, Wheat: 0
Wheat (winter wheat); [4]
  Plant response rating, Wheat: 0
Wheat (winter wheat); [5]
  Plant response rating, Wheat: 0
Wheat (winter wheat); [6]
  Plant response rating, Wheat: 0
Wheat (winter wheat); [7]
  Wheat plant response rating: 5
Wheat (winter wheat); [8]
  Plant response rating, Wheat: 5
Wheat (winter wheat); [9]
  Plant response rating, Wheat: 60
Wheat (winter wheat); Preemergence, 250 g ai/ha
  Plant response rating (scale of 0 to 100), Wheat: 90
Corn [2]; [3]
  Plant response rating, Corn: 0
Corn [2]; [4]
  Plant response rating, Corn: 0
Corn [2]; [5]
  Plant response rating, Corn: 0
Corn [2]; [6]
  Plant response rating, Corn: 5
Corn [2]; [7]
  Corn plant response rating: 0
Corn [2]; [8]
  Plant response rating, Corn: 0
Corn [2]; [9]
  Plant response rating, Corn: 15
Corn [2]; Preemergence, 250 g ai/ha
  Plant response rating (scale of 0 to 100), Corn: 45
crabgrass, large; [3]
  Plant response rating, Crabgrass, Large: 55
crabgrass, large; [4]
  Plant response rating, Crabgrass, Large: 65
crabgrass, large; [5]
  Plant response rating, Crabgrass, Large: 80
crabgrass, large; [6]
  Plant response rating, Crabgrass, Large: 90
crabgrass, large; [7]
  Crabgrass, Large plant response rating: 98
crabgrass, large; [8]
  Plant response rating, Crabgrass, Large: 98
crabgrass, large; [9]
  Plant response rating, Crabgrass, Large: 100
crabgrass, large; Preemergence, 250 g ai/ha
  Plant response rating (scale of 0 to 100), Crabgrass, Large: 100
morningglory; [3]
  Plant response rating, Morningglory: 0
morningglory; [4]
  Plant response rating, Morningglory: 0
morningglory; [5]
  Plant response rating, Morningglory: 5
morningglory; [6]
  Plant response rating, Morningglory: 5
morningglory; [7]
  Morningglory plant response rating: 0
morningglory; [8]
  Plant response rating, Morningglory: 0
morningglory; [9]
  Plant response rating, Morningglory: 35
morningglory; Preemergence, 250 g ai/ha
  Plant response rating (scale of 0 to 100), Morningglory: 35
soybean; [3]
  Plant response rating, Soybean: 5
soybean; [4]
  Plant response rating, Soybean: 5
soybean; [5]
  Plant response rating, Soybean: 0
soybean; [6]
  Plant response rating, Soybean: 5
soybean; [7]
  Soybean plant response rating: 0
soybean; [8]
  Plant response rating, Soybean: 20
soybean; [9]
  Plant response rating, Soybean: 0
soybean; Preemergence, 250 g ai/ha
  Plant response rating (scale of 0 to 100), Soybean: 0
foxtail, giant; [3]
  Plant response rating, Foxtail, Giant: 10
foxtail, giant; [4]
  Plant response rating, Foxtail, Giant: 25
foxtail, giant; [5]
  Plant response rating, Foxtail, Giant: 85
foxtail, giant; [6]
  Plant response rating, Foxtail, Giant: 90
foxtail, giant; [7]
  Foxtail, Giant plant response rating: 90
foxtail, giant; [8]
  Plant response rating, Foxtail, Giant: 90
foxtail, giant; [9]
  Plant response rating, Foxtail, Giant: 98
foxtail, giant; Preemergence, 250 g ai/ha
  Plant response rating (scale of 0 to 100), Foxtail, Giant: 98
wheat; [10]
  Plant response rating, Wheat: 20
wheat; 500 g ai/ha
  Wheat plant response rating (0 to 100 scale, 0 is no effect, 100 is complete control): 70

Source: patent US10294202B2, “Pyrrolidinones as herbicides” (FMC Corporation, priority 2013, dated 2019)
